What was measured:
[1] = target: T1, Human immunodeficiency virus type 1 reverse transcriptase (Human immunodeficiency virus 1, UniProt Q72547); assay: Competitive inhibition of C-Terminal histidine-tagged wild type heterodimeric HIV-1 reverse transcriptase p66/p51 assessed as inhibition of dGTP incorporation after 15 mins by PAGE
[2] = target: T1, Human immunodeficiency virus type 1 reverse transcriptase; assay: Competitive inhibition of C-Terminal histidine-tagged wild type heterodimeric HIV-1 reverse transcriptase p66/p51 assessed as inhibition of dTTP incorporation after 15 mins by PAGE

| SMILES | IC50 [1] | IC50 [2] |
| --- | --- | --- |
| C#CCOCCOCCOCCOCCOCC#Cc1cc(C)c(Oc2ccnc(Nc3ccc(C#N)cc3)n2)c(C)c1 | 64 nM | 122 nM |
| Cc1cc(C#CCOCCOCCOCCOCCOCC#Cc2cn([C@H]3C=C[C@@H](COP(=O)(O)OP(=O)(O)OP(=O)(O)O)O3)c(=O)[nH]c2=O)cc(C)c1Oc1ccnc(Nc2ccc(C#N)cc2)n1 | 42 nM | 3 nM |
| Cc1cc(C#N)cc(C)c1Oc1ccnc(Nc2ccc(C#N)cc2)n1 | 9 nM | 13 nM |
| Cc1cn([C@H]2C=C[C@@H](COP(=O)(O)OP(=O)(O)OP(=O)(O)O)O2)c(=O)[nH]c1=O [STAVUDINE TRIPHOSPHATE] | – | 13000 nM |

Reference: ChEMBL document CHEMBL2346547, “Bifunctional inhibition of human immunodeficiency virus type 1 reverse transcriptase: mechanism and proof-of-concept as a novel therapeutic design strategy” (J Med Chem, 2013)
